According to patent US10925875B2 (National Jewish Health, priority 2018, dated 2021):

How the values were obtained:
Format in all cases: cell-based, human
[1] = test system: IL5+ ILC2s from the blood; test: Steroid response of blood IL5+ ILC2s by flow cytometry; conditions: MNC and BAL cells, Dex 10^−7M, 3 days, e-Fluor 780
Procedure: (§1) FIGS. 1A and 1B show the effect of dexamethasone (Dex) on blood (A) and bronchoalveolar lavage (BAL) (B) Type 2 innate lymphoid cells (ILC2s). Peripheral blood mononuclear cells (PBMC) and BAL cells from an asthmatic patient were cultured with vehicle (V, ethanol)) or dexamethasone (Dex 10^−7M), a synthetic steroid, for 3 days. The frequency of lin−CRTH2+IL7Rα+IL5+ cells (considered as markers of ILC2s) was measured by flow cytometry (FCM) and analyzed by FlowJo. Frequency of dead cells (measured by e-Fluor 780, e-Bioscience) was less than 10% and excluded from the gating. The difference in dead cells between V and Dex was less than 10%). Prostaglandin D2 receptor 2 (CRTH2); interleukin-7 receptor alpha (IL7Rα); interleukin-5 (IL-5).
FIGS. 1C and 1D show the cumulative data on the effect of dexamethasone (Dex) on blood (FIG. 1C) and BAL (FIG. 1D) lin−CRTH2+IL7Rα+IL5+ cells from 14 allergic asthmatic patients.
(§2) Steroid response of ILC2s from the bronchoalveolar lavage (BAL, obtained during bronchoscopy) and blood obtained from asthmatic patients was studied. Blood was processed to isolate mononuclear cells (MNC). BAL cells were studied without further processing. […] Interluekin-5 (IL5)-expressing ILC2s were examined by flow cytometry and analyzed by FlowJo. […] Frequency of dead cells (measured by e-Fluor 780, e-Bioscience) was less than 10% and excluded from the gating. […]

BAL IL5+ ILC2s = test: Steroid response of BAL IL5+ ILC2s by flow cytometry; conditions: BAL cells, MS 100 μM with and without Dex 10^−7M, 3 days
Procedure: as §1, with “(IL-5). […]” for “(IL-5).”
BAL cells were cultured with MS (100 μM) with and without Dex (10^−7M) for 3 days. IL5 expression by lin−CRTH2+IL7Rα+ ILC2s was measured by FCM (N=8, *: P=0.0006 by Kruskal Walis test).
as §2, with “studied.” for “studied. Blood was processed to isolate mononuclear cells (MNC). BAL cells were studied without further processing.”

IL5 secretion by ILCs = test: Secreted IL5 by ELISA from isolated Lin− blood cells; conditions: Dex 10^-7 M, 5 days
Procedure: (§3) FIGS. 2C and 2D show lineage-negative (Lin−) cells (0.4×10^6 per culture) from peripheral blood obtained from 3 allergic rhinitis (non-asthmatic) patients were cultured with IL2/IL33 or IL2/TSLP with and without Dex (10^-7 M) for 5 days. Cell-free supernatant was analyzed for IL5 by ELISA. Cells were analyzed by FCM for intracellular IL5. P value for data on panel C was calculated by paired t test due to low N. Interleukin-2 (IL-2); interleukin-33 (IL-33).
(§4) The direct effect of Dex on isolated lineage− negative (Lin−) cells (representing ILCs) from the peripheral blood was examined. The effect of Dex was measured by two approaches: measurement of secreted IL5 by ELISA and measurement of the expression of intracellular IL5 by FCM. Dex inhibited IL5 secretion by IL2/IL33-stimulated ILCs by nearly 79% (FIG. 2C). In contrast, it inhibited IL5 secretion by IL2/TSLP-stimulated ILCs by only 25%. […] Dex inhibited intracellular IL5 expression in IL2/IL33- and IL2/TSLP-stimulated ILCs by 65% and 18%, respectively (FIG. 2D).

[2] = test system: intracellular IL5 expression in ILCs; test: Intracellular IL5 by FCM in isolated Lin− blood cells; conditions: Dex 10^-7 M, 5 days
Procedure: as §3, §4

MEK1/2 in ILC2s = test: Cytokine-induced MEK1/2 in ILC2s by FCM; conditions: PBMCs, IL2 plus TSLP with and without Dex, 5 days, lin−CRTH2+ cells
Procedure: FIGS. 4A and 4B show the effect of Dex on cytokine-induced MEK1 (MEK) induction. PBMCs from an asthmatic patient were cultured with medium or IL2 plus one of the two epithelial ILC-inducing cytokines—IL33 and TSLP with and without Dex for 5 days. The expression of MEK on gated live lin−CRTH2+ cells was analyzed by FCM.
Heightened MEK1/2 mediates steroid resistance of lymphocytes. The effect of IL33 and TSLP on MEK1/2 induction and the effect of Dex was examined.

difference in dead cells between V and Dex [1]: less than 10%
Compound: C[C@@H]1C[C@H]2[C@@H]3CCC4=CC(=O)C=C[C@]4(C)[C@@]3(F)[C@@H](O)C[C@]2(C)[C@@]1(O)C(=O)CO [Dex, dexamethasone]
inhibition of BAL IL5+ ILC2s (BAL IL5+ ILC2s): failed to inhibit | inhibition of IL5 secretion (IL5 secretion by ILCs; IL2/IL33-stimulated ILCs): ~79% | inhibition of IL5 secretion (IL5 secretion by ILCs; IL2/TSLP-stimulated ILCs): 25% | inhibition of intracellular IL5 expression ([2]; IL2/IL33-stimulated ILCs): 65% | inhibition of intracellular IL5 expression ([2]; IL2/TSLP-stimulated ILCs): 18% | TSLP-induced MEK1/2 (MEK1/2 in ILC2s): failed to inhibit
